Patent US12577281B2, “Mitochondrial-derived peptides and analogs thereof for use as a therapy for age-related diseases including cancer” (University of Southern California, priority 2020, dated 2026)
Where a SMILES comes first, the peptide text is derived from it.

Experiment: Safety of NOSH in mice
Type: in vivo
Experimental: FIG. 1. NOSH (ND-One short open reading frames (sORF) in Humans) is safe in mice. NOSH has a sequence of […] (SEQ ID NO:215).
NOSH was safe in mice. Further, NOSH increased autophagy. The level of autophagy-related protein microtubule-associated protein 1 light chain 3 (LC3) was increased in PC3 cells treated with 5 μM NOSH for 6 h. FIG. 2.

Q: Which safety in mice does the source give for `CC[C@H](C)[C@H](NC(=O)[C@H](CC(C)C)NC(=O)[C@@H](NC(=O)[C@H](CC(C)C)NC(=O)[C@H](CCSC)NC(=O)[C@H](CC(C)C)NC(=O)[C@H](CO)NC(=O)[C@H](CC(C)C)NC(=O)[C@H](CO)NC(=O)[C@H](CCCNC(=N)N)NC(=O)CNC(=O)[C@H](CO)NC(=O)[C@H](CCCNC(=N)N)NC(=O)[C@H](CCCNC(=N)N)NC(=O)[C@@H](NC(=O)[C@H](C)NC(=O)[C@H](CC(C)C)NC(=O)[C@H](CC(C)C)NC(=O)[C@H](CC(C)C)NC(=O)CNC(=O)[C@H](Cc1ccccc1)NC(=O)[C@H](CC(C)C)NC(=O)[C@H](CCCNC(=N)N)NC(=O)[C@@H](N)CCSC)C(C)C)[C@@H](C)O)C(=O)N[C@@H](CCCNC(=N)N)C(=O)NCC(=O)N[C@@H](CC(C)C)C(=O)N[C@@H](CO)C(=O)N[C@@H](CCCCN)C(=O)N[C@@H](CCCNC(=N)N)C(=O)N[C@@H](CC(C)C)C(=O)NCC(=O)O` [NOSH] (H-MRLFGLLLAVRRSGRSLSLMLTLIRGLSKRLG-OH) here?
A: safe
